Laboratory results published in patent publication US20170128418A1, “COMPOSITIONS AND METHODS FOR IMPROVING LACTATION” (UNIVERSITY OF CINCINNATI, priority 2012, published 2017).

Columns and labels:
[1] = Circulating 5-HT and PTHrP in rats fed a 5-HTP supplemented diet; assay type: in vivo; conditions: rats fed 0.2% 5-HTP diet from d13 pregnancy through d9 lactation vs control breeder diet
Protocol: FIG. 1 depicts the circulating levels of (A) serum 5-HT and (B) plasma PTHrP in rats fed 0.2% 5-HTP from d13 pregnancy through d9 lactation compared to rats fed a control breeder diet.
Based on the foregoing results, studies were conducted to establish, in practice, that feeding a diet supplemented with 5-HTP would elevate circulating levels of serotonin (5-HT) and PTHrP. Rats were fed a diet supplemented with 0.2% 5-HTP, and circulating levels of 5-HT (serum) and PTHrP (plasma) in the rats fed 0.2% 5-HTP from d13 pregnancy through d9 lactation were compared to rats fed a control breeder diet.

[2] = Serum and milk calcium in rats fed a 5-HTP supplemented diet; assay type: in vivo; conditions: rats fed 0.2% 5-HTP diet from d13 pregnancy, vs control diet
Protocol: FIG. 2 depicts the serum and milk calcium concentrations in rats fed 0.2% 5-HTP (n=15) from d13 pregnancy-d9 lactation compared to rats fed a control (n=15) breeder diet at (A) day 1 of lactation and (B) day 9 of lactation.
Based on the foregoing results, studies were conducted to establish, in practice, that feeding a diet supplemented with 5-HTP would elevate circulating calcium levels in lactating animals. Serum and milk calcium concentrations were measured in rats fed a diet supplemented with 0.2% 5-HTP (n=15) from d13 pregnancy-d9 lactation, compared to rats fed a control (n=15) diet. Serum calcium concentrations were elevated by 5-HTP supplementation on dl of lactation, and subsequently, milk calcium levels were elevated by 5-HTP on d9 of lactation (FIG. 2).

PTHrP = test: 5-HTP injection rescue of TPH1 knockout mice, plasma PTHrP (IRMA); assay type: in vivo; conditions: TPH1 knockout mice injected with 5-HTP; P<0.0001, R=0.92
Protocol: TPH1^−/−, and corresponding wild type control animals (C57BL/6J genetic background) were bred and maintained in our animal facility. All experiments were performed under protocols approved by the University of Cincinnati Institutional Animal Care and Use Committee. Plasma was collected for PTHrP assay from non-lactating wild type mice and both wild type and TPH1^−/− animals on day 10 of lactation. Mammary gland tissues (#4 glands counted from most rostral) were collected for immunostaining from TPH1^−/− animals and wild type controls on day 10 of lactation, and were fixed in 4% paraformaldehyde, before being paraffin embedded and sectioned.
PTHrP IRMA. Plasma PTHrP levels were measured using a two-site immunoradiometric assay specific for PTHrP 1-86 (Becton Dickinson), following the manufacturer's instructions. The detection limit (blank serum+1 standard deviation) was 0.3 pM under the conditions of this assay.
The conversion of L-tryptophan to 5-hydroxytryptophan (5-HTP) is the rate-limiting step in 5-HT synthesis; therefore we injected 5-HTP to bypass the enzyme deficiency in TPH1 mice, and measured PTHrP plasma levels.

HC11 cells = test: PTHrP gene expression in lactogen-treated HC11 cells (real-time RT-PCR); assay type: cell-based, mouse; conditions: lactogen-treated rodent HC11 cells
Text: (§1) Cell culture. Primary bovine mammary epithelial cells grown in collagen gels were induced to differentiate by release of the gel from the substratum, and treating with lactogenic hormones as described (15,31). The mouse mammary epithelial cells (HC11) were maintained under growth medium conditions, and lactogen-induced by treatment of 3 day confluent cultures with prolactin, insulin, and cortisol as previously described (17).
(§2) Quantitative real-time RT-PCR amplification. Total RNA was isolated using TRIreagent® (Molecular Research) following manufacturer's procedures. RNA quality was determined through spectrophometric methods on the Nanodrop 2000 (Thermo Scientific). A total of […] was reverse transcribed using the QuantiTect reverse transcription kit (Qiagen). Quantitative real-time RT-PCR was performed using the Applied Biosystems Step One Plus system (Applied Biosystems) using fast SYBR green master mix (Applied Biosystems). The following conditions were utilized: 95′C for 20 sec. followed by 40 cycles of 95′C for 3 sec., 60′C for 30 sec.
To determine whether PTHrP expression in mammary epithelial cells was directly responsive to 5-HT two cell models of lactogenic mammary epithelium were studied: lactogen-treated rodent HC11 cells, and primary bovine mammary epithelial cells embedded in floating collagen gels. […]

[3] = test system: primary bovine mammary epithelial cells; test: PTHrP gene expression in primary bovine mammary epithelial cells in floating collagen gels (real-time RT-PCR); assay type: cell-based; conditions: primary bovine mammary epithelial cells embedded in floating collagen gels
Text: as §1
Primary bovine mammary epithelial cells (pBMEC) were obtained as a generous gift from Dr. Robert Collier at the University of Arizona and cultured as previously described (15, 31).
as §2, with “30 sec. […]” for “30 sec.”

[4] = test system: vascular smooth muscle cells; conditions: previous study; cited from earlier work
mammary cells = test: PTHrP induction by prolactin in mammary epithelium cell cultures; assay type: cell-based; conditions: conventional cell cultures of mammary epithelium
Text: PTHrP is undetectable in the circulation except during lactation, in advanced metastatic disease, or in patients with hyperprolactinemia.

N[C@@H](Cc1c[nH]c2ccc(O)cc12)C(=O)O [5-HTP, 5-Hydroxytryptophan]
circulating 5-HT (serum) [1]: elevation
circulating PTHrP (plasma) [1]: elevation
milk calcium levels ([2]; d9 of lactation): elevated
serum calcium concentrations ([2]; dl of lactation): elevated
plasma PTHrP (PTHrP): time-dependent increase

NCCc1c[nH]c2ccc(O)cc12 [5-HT, serotonin]
PTHrP gene expression induction (HC11 cells): 8 fold
PTHrP gene expression induction [3]: 20 fold
PTHrP expression [4]: induced

B1: prolactin (protein, UniProt P01236 29-227, looked up)
Prolactin: LPICPGGAARCQVTLRDLFDRAVVLSHYIHNLSSEMFSEFDKRYTHGRGFITKAINSCHTSSLATPEDKEQAQQMNQKDFLSLIVSILRSWNEPLYHLVTEVRGMQEAPEAILSKAVEIEEQTKRLLEGMELIVSQVHPETKENEIYPVWSGLPSLQMADEESRLSAYYNLLHCLRRDSHKIDNYLKLLKCRIIHNNNC
notes: prolactin hormone
PTHrP induction (mammary cells): did not induce
